Measured values: patent US20120034608A1, “MICRORNA AS A BIOMARKER OF PANCREATIC ISLET BETA-CELL ENGAGEMENT” (Merck Sharp & Dohme Corp., priority 2009, published 2012)

What was measured:
Format in all cases: cell-based, rat
INS-1 832/3 cells [1] = experiment: glucose dependent insulin secretion (GDIS) assay in INS-1 832/3 cells; details: for GLP-1 potentiation of GDIS: 16 mM glucose + 10 nM GLP-1, 48 hour post transfection; for GLP-1 potentiation of GDIS / glucose-dependent insulin secretion (GDIS): vs scramble control; for insulin release as percentage of insulin secretion of intracellular insulin content / glucose-dependent insulin secretion (GDIS) / basal insulin secretion at low glucose / insulin release stimulated by KCl: 48 hours post-transfection; for glucose-dependent insulin secretion (GDIS): two hour incubation in KRB; for insulin content: cell lysates, normalized to total protein; for basal insulin secretion at low glucose: 2 mM glucose; for insulin release stimulated by KCl: 30 mM KCl
Text: (§1) We overexpressed the precursors of miR-132 and miR-212 to evaluate their possible contribution to β-cell function. MicroRNA miR-375 was included as a control as it been reported to have an inhibitory effect on GDIS (Poy et al., Nature 432: 226-230 (2004)). Chemically modified Pre-miR™ miRNA precursor molecules and Anti-miR™ miRNA inhibitors were purchased from Ambion (Foster City, Calif.). miRCURY LNA™ microRNA knockdown oligonucleotides were purchased from Exiqon (Woburn, Mass.). The oligonucleotide molecules were delivered to the cells by the Nucleofector Device (Amaxa, Gaithersburg, Md.). In brief, INS-1 cells were trypsinized, centrifuged, and resuspended in 100 μl Nucleofector solution V. Then 100-500 pmole RNA oligonucleotides were transfected to 3-million cells at the concentration of 1-5 μM with the Amaxa Nucleofector Device. Scramble controls from the vendors were used with the same transfection method. After electroporation, the cells were transferred to regular culture medium and then split into replicates in 96-well plates. Insulin secretion assay or LANCE cAMP assay were performed 48 hours post electroporation.
(§2) INS-1 cell glucose dependent insulin secretion (GDIS) assay was performed as follows. The GDIS assay was performed with cells grown to near confluency in 96-well plates. Prior to the assay, cells were washed once with PBS and pre-incubated for two hours in freshly prepared Krebs-Ringer Bicarbonate (KRB) medium without glucose. The medium were then replaced with KRB with 2, 8 or 16 mM glucose or along with 10 nM GLP-1. The cells were incubated for another two hours in a CO2 incubator. The media was then removed at the end of incubation, and assayed for insulin levels by Ultra-sensitive Rat Insulin ELISA kit (ALPCO, Salem, N.H.) or insulin immunoassay by Gyrolab workstation (GYROS AB, Uppsala, Sweden). Intracellular insulin was extracted by acid ethanol method for measuring intracellular insulin content. Total protein was measured by Pierce 660 nm Protein Assay from Pierce Biotechnology, Inc. (Rockford, Ill.).

INS-1 832/3 cells [2] = experiment: TAQMAN quantification of insulin (Ins1) transcripts in INS-1 832/3 cells; details: normalized to β-actin
Text: as §1
We further measured the insulin content and found it was unchanged by miR-132 or miR-212 overexpression (FIG. 7B). […] Furthermore, we measured insulin transcripts by TAQMAN analysis in cells over-expressing these microRNA molecules. Ins1 TAQMAN probe from Applied Biosystems (Foster City, Calif.) was used to measure insulin transcript levels and normalized to β-actin. […] In this series of experiments, miR-132, miR-212 and miR-375 transcripts were increased by about 1000-fold, 2000-fold, and 8-fold, respectively, as assayed by TAQMAN real-time quantitative RT-PCR.

INS-1 832/3 cells [3] = experiment: TAQMAN real-time quantitative RT-PCR of miRNA expression in INS-1 832/3 cells; details: for increase of the corresponding miRNA transcripts after transfection of precursor: overexpression experiments, TAQMAN real-time quantitative RT-PCR
Protocol: INS-1 832/3 and 832/13 cells were maintained in RPMI 1640 with 10% FBS and 11 mM glucose. For GLP-1 treatment, GLP-1 (7-37) amide (ABCHEM) was added in the media in the presence of 16 mM glucose for 24 hours. Total RNA was extracted with TRIZOL as in Example 1. Rat islet isolation and treatment was as follows. Pancreatic islets of Langerhans were isolated from the pancreas of normal Sprague-Dawley rats (Charles River, Ind.) by collagenase digestion and discontinuous Ficoll gradient separation (15). Islets were cultured for 2 hours in RPMI 1640 medium with 11 mM glucose for recovery from the isolation process. Then 100-200 islets were treated with 50 nM GLP-1 in the media with 11 mM glucose for 24 hours. RNA was extracted with TRIZOL as in Example 1 for quantification of microRNA species.
Fluorogenic TAQMAN detector probes specific for miR-132 (Cat# TM457), miR-212 (Cat# TM515), miR-375 (Cat#TM564), and miR-217 (Cat#1133) were purchased from Applied Biosystems (Foster City, Calif.). The TAQMAN RT-PCR reactions were performed according to the manufacturer's instructions.
Relative miRNA levels for the miRNAs of interest were determined by real-time reverse transcription reaction using the ABI PRISM 7900 Sequence Detection System from Applied Biosystems (Foster City, Calif.) according to the manufacturer's protocol. Briefly, 10 ng of total RNA was mixed with 1 U MultiScribe Reverse Transcriptase, 0.25 U RNase Inhibitor, 3 μL hairpin-looped miRNA-specific RT primer, 1 mM dNTPs and 1× Reverse Transcription Buffer in a total volume of 15 μL. The mixture was incubated at 16° C. for 30 minutes, 42° C. for another 30 minutes, and the reaction was stopped by heating to 85° C. for 5 minutes. Real time PCR reaction was set up in 20 μL volume with 1.33 μL first strand cDNA, 1× TAQMAN MicroRNA Assay Mix and 1× TAQMAN Universal PCR Master Mix. After activation of the AMPLITAQ Gold DNA polymerase at 95° C. for 10 minutes, 40 cycles of two-step PCR were run (95° C. for 15 seconds and 60° C. for 60 seconds). Data were collected and analyzed with SDS v.2.2.2 software (Applied Biosystems). 4.5S RNA or U6 probe (Applied Biosystems) was used as a reference to determine the relative abundance of each miRNA in different samples. TAQMAN RT-PCR was performed according the manufacturer's instructions.
The absolute miRNA levels were determined by reverse transcription reactions in GeneAmp PCR system 9700 followed by amplification using the ABI PRISM 7900HT Sequence Detection System from Applied Biosystems (Foster City, Calif.) through 40 cycles. 4.5S RNA (H) probe (Cat#TM1716) or U6 (Cat#TM1973) was used as reference to determine the relative abundance of each miRNA in different samples. The induction of miR-132 and miR-212 expression by GLP-1 started around 4 hour post-GLP-1 treatment, peaked at 24 hours and was sustained up to 48 hours (FIG. 2).

INS-1 832/13 cells [4] = experiment: glucose dependent insulin secretion (GDIS) assay in INS-1 832/13 cells; details: transfected cells vs scramble control
Text: as §1, §2

INS-1 832/13 cells [5] = experiment: LANCE cAMP assay in INS-1 832/13 cells; details: for cAMP levels: cells overexpressing the precursor vs scramble control
Text: as §1
(§3) For the Lance cAMP assay, INS1 832/3 and 832/13 cells were grown to near confluency in flasks. 9000 cells were incubated with GLP-1 or Exendin-4 in stimulation buffer at concentrations as indicated in figure legends for 1 hour at 37° C. cAMP levels were measured using LANCE cAMP assay kit in 384-well format according to manufacture's protocol (Perkin Elmer, Waltham, Mass.). Counts were calculated to cAMP concentrations using a cAMP standard curve. Each condition was measured in quadruplicate.

INS-1 832/3 cells [6] = experiment: LANCE cAMP assay in INS-1 832/3 cells; details: one hour stimulation, 5.5 mM glucose
Protocol: as §3

[7] = 50 nM GLP-1, 50 nM Exendin-4, 5 μM IBMX, 1 μM Foskolin (FIG. 6A)

Substance | GLP-1 potentiation of GDIS (INS-1 832/3 cells [1]) | insulin release as percentage of insulin secretion of intracellular insulin content (INS-1 832/3 cells [1]) | glucose-dependent insulin secretion (GDIS) (INS-1 832/3 cells [1]) | insulin content (INS-1 832/3 cells [1]) | insulin (Ins1) transcripts (INS-1 832/3 cells [2]) | increase of the corresponding miRNA transcripts after transfection of precursor (INS-1 832/3 cells [3]) | effect of GLP-1 (GLP-1 potentiation) (INS-1 832/13 cells [4]) | insulin secretion (GDIS) (INS-1 832/13 cells [4]) | basal insulin secretion at low glucose (INS-1 832/3 cells [1]) | insulin release stimulated by KCl (INS-1 832/3 cells [1]) | cAMP levels (INS-1 832/13 cells [5]) | cAMP accumulation (INS-1 832/13 cells [5]; one hour stimulation, 5.5 mM glucose) | cAMP accumulation (INS-1 832/3 cells [6]) | miR-132 expression (INS-1 832/3 cells [3]; [7]) | miR-212 expression (INS-1 832/3 cells [3]; [7]) | miR-375 expression (INS-1 832/3 cells [3]; [7])
miR-375: chemically modified Pre-miR miRNA precursor molecule (Ambion) transfected to overexpress miR-375, control (guide UUUGUUCGUUCGGCUCGCGUGA; chemically modified Pre-miR precursor, pattern not given here) | not | decreased | significantly suppressed | reduction | moderately down-regulated | ~8 fold | – | – | – | – | – | – | – | – | – | –
miR-212: chemically modified Pre-miR miRNA precursor molecule (Ambion) transfected to overexpress miR-212 (guide UAACAGUCUCCAGUCACGGCC; chemically modified Pre-miR precursor, pattern not given here) | enhanced | significantly increased | significantly enhanced | unchanged | no effect | ~2000 fold | augmented | significantly increased | unchanged | significantly enhanced | no changes | – | – | – | – | –
miR-132: chemically modified Pre-miR miRNA precursor molecule (Ambion) transfected to overexpress miR-132 (guide UAACAGUCUACAGCCAUGGUCG; chemically modified Pre-miR precursor, pattern not given here) | robustly increased | significantly increased | significantly enhanced | unchanged | no effect | about 1000 fold | augmented | significantly increased | unchanged | significantly enhanced | no changes | – | – | – | – | –
Exendin-4: GLP-1 analog, cAMP raising agent | – | – | – | – | – | – | – | – | – | – | – | loss of such response | dose-dependent accumulation | significantly increased | significantly increased | remained unchanged
